Test results as given in patent EP0093484A2, “Antibacterial monic acid derivatives” (BEECHAM GROUP PLC, priority 1982, dated 1983).
In brackets after ≈: the same amount, converted by molar mass. Where two headings read alike, the source gives them in different places.

Legend:
M. suipneumoniae JF 435 = assay: Anti-mycoplasmal activity, MIC in Friis broth agarose; assay type: cell-based; details: Friis broth solidified with 0.9% agarose, 6 days incubation at 37°C
M. suipneumoniae Str. 11 = assay: as above; assay type: cell-based; details: Friis broth solidified with 0.9% agarose, 6 days incubation at 37°C
M. suipneumoniae MS16 = assay: as above; assay type: cell-based; details: Friis broth solidified with 0.9% agarose, 6 days incubation at 37°C
[1] = system: M. suipneumoniae PW/C/210; assay: as above; assay type: cell-based; details: Friis broth solidified with 0.9% agarose, 6 days incubation at 37°C
M. suipneumoniae LABER = assay: as above; assay type: cell-based; details: Friis broth solidified with 0.9% agarose, 6 days incubation at 37°C
[2] = system: M. hyosynoviae ATCC 25591; assay: as above; assay type: cell-based; details: Friis broth solidified with 0.9% agarose, 6 days incubation at 37°C
M. bovis NCTC 10131 = assay: microbe, parasite or virus in culture; assay type: cell-based
M. dispar NCTC 10125 = assay: Anti-mycoplasmal activity, MIC in Friis broth agarose; assay type: cell-based; details: Friis broth solidified with 0.9% agarose, 6 days incubation at 37°C
M. gallisepticum S6 = assay: as above; assay type: cell-based; details: Friis broth solidified with 0.9% agarose, 6 days incubation at 37°C
M. pneumoniae ATCC 15492 = assay: as above; assay type: cell-based; details: Friis broth solidified with 0.9% agarose, 6 days incubation at 37°C
E. coli NCTC 10418 = assay: Human bacteria, MIC by serial dilution in nutrient agar; assay type: cell-based; details: E. coli NCTC 10418 (human panel), nutrient agar with 5% chocolated horse blood, 18 hours at 37°C
E. coli ESS = assay: as above; assay type: cell-based; details: nutrient agar with 5% chocolated horse blood, 18 hours at 37°C
K. aerogenes A = assay: as above; assay type: cell-based; details: nutrient agar with 5% chocolated horse blood, 18 hours at 37°C
Ps. aeruginosa 10662 = assay: as above; assay type: cell-based; details: nutrient agar with 5% chocolated horse blood, 18 hours at 37°C
[3] = system: Haemophilus influenzae Q1; assay: as above; assay type: cell-based; details: nutrient agar with 5% chocolated horse blood, 18 hours at 37°C
[4] = system: Haemophilus influenzae Wy21; assay: as above; assay type: cell-based; details: nutrient agar with 5% chocolated horse blood, 18 hours at 37°C
[5] = system: Neisseria catarrhalis 1502; assay: as above; assay type: cell-based; details: nutrient agar with 5% chocolated horse blood, 18 hours at 37°C
[6] = system: Corynebacterium xerosis 9755; assay: as above; assay type: cell-based; details: nutrient agar with 5% chocolated horse blood, 18 hours at 37°C
Sarcina lutea 8340 = assay: as above; assay type: cell-based; details: nutrient agar with 5% chocolated horse blood, 18 hours at 37°C
Staph. aureus W2827 = assay: as above; assay type: cell-based; details: nutrient agar with 5% chocolated horse blood, 18 hours at 37°C
Strep. faecalis I = assay: as above; assay type: cell-based; details: nutrient agar with 5% chocolated horse blood, 18 hours at 37°C
Strep. agalactiae 2788-B = assay: as above; assay type: cell-based; details: nutrient agar with 5% chocolated horse blood, 18 hours at 37°C
Strep. spp. 64/848-C = assay: as above; assay type: cell-based; details: nutrient agar with 5% chocolated horse blood, 18 hours at 37°C
Strep. pneumoniae CN33 = assay: as above; assay type: cell-based; details: nutrient agar with 5% chocolated horse blood, 18 hours at 37°C
E. coli E1 = assay: Veterinary bacteria, MIC by two fold serial dilution in agar
Procedure: (§1) The activity of the compounds of the Examples against various organisms important in veterinary infections was determined using two fold serial dilutions in Diagnostic Sensitivity Test Agar inoculated with 10^4 organisms.

S. dublin S7 = assay: as above
Procedure: as §1

Bord. bronchiseptica B08 = assay: as above
Procedure: as §1

Bord. bronchiseptica BO9 = assay: as above
Procedure: as §1

Past. multocida PA2 = assay: as above
Procedure: as §1

Past. haemolytica PA5 = assay: as above
Procedure: as §1

[7] = system: Erysipelothrix rhusiopathiae NCTC 8163; assay: as above
Procedure: as §1

[8] = system: Staph. aureus B4 (pen. resistant); assay: as above
Procedure: as §1

[9] = system: Staph. aureus 152 (pen. sens.); assay: as above
Procedure: as §1

Staph. aureus Oxford = assay: as above
Procedure: as §1

[10] = system: Strep. suis (group D) SPS11; assay: as above
Procedure: as §1

Strep. uberis SPU1 = assay: as above
Procedure: as §1

Strep. dysgalactiae SPD1 = assay: as above
Procedure: as §1

Strep. agalactiae SPA1 = assay: as above
Procedure: as §1

[11] = Mesomycoplasma hyopneumoniae, 144 h, read-out: MIC

## CC(=CC(=O)OCc1ccc(S(C)(=O)=O)cc1)CC1OCC(CC2OC2C(C)C(C)O)C(O)C1O (stereo not shown) [Example 3, p-Methylsulphonylbenzyl monate A]
M. suipneumoniae JF 435; Mesomycoplasma hyopneumoniae, JF435, 144 h, read-out: MIC
  MIC: 0.25 µg/mL (≈ 0.488 µM)
M. suipneumoniae Str. 11; [11]
  MIC: 0.1 µg/mL (≈ 0.195 µM)
M. suipneumoniae MS16; [11]
  MIC: 0.1 µg/mL (≈ 0.195 µM)
[1]; [11]
  MIC: 0.1 µg/mL (≈ 0.195 µM)
M. suipneumoniae LABER; [11]
  MIC: 0.1 µg/mL (≈ 0.195 µM)
[2]; 144 h, read-out: MIC
  MIC: 0.025 µg/mL (≈ 0.0488 µM)
M. bovis NCTC 10131; NCTC10131, 144 h
  MIC: < 0.01 µg/mL
M. dispar NCTC 10125; 144 h, read-out: MIC
  MIC: 0.05 µg/mL (≈ 0.0975 µM)
M. gallisepticum S6; Mycoplasmoides gallisepticum, 144 h, read-out: MIC
  MIC: 0.5 µg/mL (≈ 0.975 µM)
M. pneumoniae ATCC 15492; Mycoplasmoides pneumoniae, ATCC15492, 144 h, read-out: MIC
  MIC: 0.25 µg/mL (≈ 0.488 µM)
E. coli NCTC 10418; Escherichia coli, NCTC10418, read-out: MIC
  MIC: 100 µg/mL (≈ 195 µM)
E. coli ESS; Escherichia coli, read-out: MIC
  MIC: 0.5 µg/mL (≈ 0.975 µM)
K. aerogenes A; Klebsiella aerogenes, read-out: MIC
  MIC: > 100 µg/mL
Ps. aeruginosa 10662; Pseudomonas aeruginosa, read-out: MIC
  MIC: > 100 µg/mL
[3]; read-out: MIC
  MIC: 0.05 µg/mL (≈ 0.0975 µM)
[4]; read-out: MIC
  MIC: 0.1 µg/mL (≈ 0.195 µM)
[5]; read-out: MIC
  MIC: 0.25 µg/mL (≈ 0.488 µM)
[6]; read-out: MIC
  MIC: > 100 µg/mL
Sarcina lutea 8340; Micrococcus luteus, read-out: MIC
  MIC: > 100 µg/mL
Staph. aureus W2827; Staphylococcus aureus, read-out: MIC
  MIC: 2.5 µg/mL (≈ 4.88 µM)
Strep. faecalis I; Enterococcus faecalis, read-out: MIC
  MIC: 50 µg/mL (≈ 97.5 µM)
Strep. agalactiae 2788-B; Streptococcus agalactiae, read-out: MIC
  MIC: 0.5 µg/mL (≈ 0.975 µM)
Strep. spp. 64/848-C; read-out: MIC
  MIC: 0.5 µg/mL (≈ 0.975 µM)
Strep. pneumoniae CN33; Streptococcus pneumoniae, read-out: MIC
  MIC: 0.5 µg/mL (≈ 0.975 µM)
E. coli E1; Escherichia coli, E1, 18 h
  MIC: > 80 µg/mL
S. dublin S7; Salmonella enterica, S7, 18 h
  MIC: > 80 µg/mL
Bord. bronchiseptica B08; Bordetella bronchiseptica, B08, 18 h
  MIC: 20 µg/mL (≈ 39 µM)
Bord. bronchiseptica BO9; Bordetella bronchiseptica, BO9, 18 h
  MIC: 2.5 µg/mL (≈ 4.88 µM)
Past. multocida PA2; Pasteurella multocida, PA2, 18 h
  MIC: 0.156 µg/mL (≈ 0.304 µM)
Past. haemolytica PA5; Mannheimia haemolytica, PA5, 18 h
  MIC: 5 µg/mL (≈ 9.75 µM)
[7]; Erysipelothrix rhusiopathiae, NCTC8163, 18 h
  MIC: 80 µg/mL (≈ 156 µM)
[8]; Staphylococcus aureus, 18 h
  MIC: 1.25 µg/mL (≈ 2.44 µM)
[9]; Staphylococcus aureus, 18 h
  MIC: 1.25 µg/mL (≈ 2.44 µM)
Staph. aureus Oxford; Staphylococcus aureus, 18 h
  MIC: 1.25 µg/mL (≈ 2.44 µM)
[10]; Streptococcus suis, 18 h
  MIC: 2.5 µg/mL (≈ 4.88 µM)
Strep. uberis SPU1; Streptococcus uberis, SPU1, 18 h
  MIC: 0.312 µg/mL (≈ 0.609 µM)
Strep. dysgalactiae SPD1; Streptococcus dysgalactiae, SPD1, 18 h
  MIC: 0.156 µg/mL (≈ 0.304 µM)
Strep. agalactiae SPA1; Streptococcus agalactiae, SPA1, 18 h
  MIC: 0.625 µg/mL (≈ 1.22 µM)

## m-Methylthiobenzyl monate A [Example 5]
M. suipneumoniae JF 435
  MIC: 0.5 µg/mL
M. suipneumoniae Str. 11
  MIC: 0.25 µg/mL
M. suipneumoniae MS16
  MIC: 0.25 µg/mL
[1]
  MIC: 0.25 µg/mL
M. suipneumoniae LABER
  MIC: 0.25 µg/mL
[2]
  MIC: 0.5 µg/mL
M. bovis NCTC 10131; M. bovis NCTC 10131, Friis broth solidified with 0.9% agarose, 6 days incubation at 37°C
  MIC: 0.025 µg/mL
M. dispar NCTC 10125
  MIC: 0.1 µg/mL
M. gallisepticum S6
  MIC: 5.0 µg/mL
M. pneumoniae ATCC 15492
  MIC: 5.0 µg/mL
E. coli NCTC 10418
  MIC: >100 µg/mL
E. coli ESS
  MIC: 5.0 µg/mL
K. aerogenes A
  MIC: >100 µg/mL
Ps. aeruginosa 10662
  MIC: >100 µg/mL
[3]
  MIC: 1.0 µg/mL
[4]
  MIC: 1.0 µg/mL
[5]
  MIC: 0.5 µg/mL
[6]
  MIC: >100 µg/mL
Sarcina lutea 8340
  MIC: >100 µg/mL
Staph. aureus W2827
  MIC: 0.5 µg/mL
Strep. faecalis I
  MIC: 100 µg/mL
Strep. agalactiae 2788-B
  MIC: 1.0 µg/mL
Strep. spp. 64/848-C
  MIC: 1.0 µg/mL
Strep. pneumoniae CN33
  MIC: 1.0 µg/mL
E. coli E1; E. coli E1, Diagnostic Sensitivity Test Agar, 18 hours at 37°C
  MIC: >80 µg/mL
S. dublin S7; S. dublin S7, Diagnostic Sensitivity Test Agar, 18 hours at 37°C
  MIC: >80 µg/mL
Bord. bronchiseptica B08; Bord. bronchiseptica B08, Diagnostic Sensitivity Test Agar, 18 hours at 37°C
  MIC: 10 µg/mL
Bord. bronchiseptica BO9; Bord. bronchiseptica BO9, Diagnostic Sensitivity Test Agar, 18 hours at 37°C
  MIC: 2.5 µg/mL
Past. multocida PA2; Past. multocida PA2, Diagnostic Sensitivity Test Agar, 18 hours at 37°C
  MIC: .625 µg/mL
Past. haemolytica PA5; Past. haemolytica PA5, Diagnostic Sensitivity Test Agar, 18 hours at 37°C
  MIC: 10 µg/mL
[7]; Erysipelothrix rhusiopathiae NCTC 8163, Diagnostic Sensitivity Test Agar, 18 hours at 37°C
  MIC: 5 µg/mL
[8]; Staph. aureus B4 (pen. resistant), Diagnostic Sensitivity Test Agar, 18 hours at 37°C
  MIC: .156 µg/mL
[9]; Staph. aureus 152 (pen. sens.), Diagnostic Sensitivity Test Agar, 18 hours at 37°C
  MIC: .156 µg/mL
Staph. aureus Oxford; Staph. aureus Oxford (veterinary panel), Diagnostic Sensitivity Test Agar, 18 hours at 37°C
  MIC: .156 µg/mL
[10]; Strep. suis (group D) SPS11, Diagnostic Sensitivity Test Agar, 18 hours at 37°C
  MIC: 1.25 µg/mL
Strep. uberis SPU1; Strep. uberis SPU1, Diagnostic Sensitivity Test Agar, 18 hours at 37°C
  MIC: .07 µg/mL
Strep. dysgalactiae SPD1; Strep. dysgalactiae SPD1, Diagnostic Sensitivity Test Agar, 18 hours at 37°C
  MIC: .07 µg/mL
Strep. agalactiae SPA1; Strep. agalactiae SPA1, Diagnostic Sensitivity Test Agar, 18 hours at 37°C
  MIC: .312 µg/mL
